The values below are quoted from earlier work in patent US12329862B2, “Transdermal therapeutic system containing asenapine” (LTS LOHMANN THERAPIE-SYSTEME AG, priority 2018, dated 2025).

The structures appear in SMILES notation.

Consider `CN1C[C@H]2c3ccccc3Oc3ccc(Cl)cc3[C@@H]2C1` (relative stereo) [asenapine, (3aRS,12bRS)-rel-5-chloro-2,3,3a,12b-tetrahydro-2-methyl-1H-dibenz[2,3:6,7]oxepino[4,5-c]pyrrole], for which the bioavailability (if ingested) was less than 2%. The terminal disposition half-life (sublingual administration, therapeutic doses) is not below 24 h. For the same compound, the “Somnolence and anxiety, share of the patients” value (very common side effects) is on record as not below 10%.

In general, bioavailability refers to dose-corrected exposure relative to a reference, in per cent.
